Experimental data taken from ChEMBL document CHEMBL1131357, “New bronchodilators selected by molecular topology” (1998).

What was measured:
Format in all cases: functional
Cavia porcellus [1] = organism: Cavia porcellus; assay: Percent relaxation using isolated guinea pig trachea.
Cavia porcellus [2] = organism: Cavia porcellus; assay: Percent relaxation of isolated guinea pig trachea.
Cavia porcellus [3] = organism: Cavia porcellus; assay: pD2 value (pD2 = -log EC50) was calculated using indometazine in guinea pig trachea
Cavia porcellus [4] = organism: Cavia porcellus; assay: Compound was evaluated for the percent of relaxation using isolated guinea pig trachea
Cavia porcellus [5] = organism: Cavia porcellus; assay: Compound was evaluated for the percent of relaxation using isolated guinea pig trachea at a dose of 1 mM

With `C[C@]12CCC(=O)C=C1CCCC2=O` the Relaxation (Cavia porcellus [1]) was 22% and the pD2 (Cavia porcellus [2]) was 4.5.
Compound `C[n+]1cc2c3c(ccc2c2ccc4cc5c(cc4c21)OCO5)OCO3` [SANGUINARIUM] has a Relaxation (Cavia porcellus [1]) of -89%.
In the case of `O=C(O)c1ccc2c(c1)S(=O)(=O)c1ccccc1C2=O`, the Relaxation (Cavia porcellus [1]) is reported as 85% and the pD2 (Cavia porcellus [2]) is reported as 4.65.
`O=C1c2ccccc2S(=O)(=O)c2cc(-c3nn[nH]n3)ccc21` [DOXANTRAZOLE] gave a Relaxation (Cavia porcellus [1]) of 91% and a pD2 (Cavia porcellus [2]) of 5.5.
Compound `CCCCC1C(=O)N(c2ccccc2)N(c2ccccc2)C1=O` [PHENYLBUTAZONE] has a Relaxation (Cavia porcellus [1]) of 28% and a pD2 (Cavia porcellus [3]) of 4.69.
For `CCN(CC)c1ccc2nc3c4ccccc4c(=O)cc-3oc2c1` [NILE RED], the Relaxation (Cavia porcellus [1]) was 0%.
In the case of `Cc1c(C(C)C)c(=O)n(-c2ccccc2)n1C` [PROPYPHENAZONE], the Relaxation (Cavia porcellus [1]) is reported as 29% and the pD2 (Cavia porcellus [2]) is reported as 5.69.
`COC(=O)C1C2CCC(O2)C1C(=O)OC` (stereo not drawn) showed a Relaxation (Cavia porcellus [1]) of 28% and a pD2 (Cavia porcellus [2]) of 4.8.
`COC1=CC(=O)C[C@@H](C)[C@]12Oc1c(Cl)c(OC)cc(OC)c1C2=O` [GRISEOFULVIN] gave a Relaxation (Cavia porcellus [1]) of 74% and a pD2 (Cavia porcellus [2]) of 4.8.
Work on `CCCCC(CC)CN1CN(CC(CC)CCCC)CC(C)(N)C1` (stereo not drawn) [HEXETIDINE] yielded a Relaxation (Cavia porcellus [1]) of -94%.
`O=C(CN1CCNCC1)N1CCCC1` was tested, and the Relaxation (Cavia porcellus [1]) was 59% and the pD2 (Cavia porcellus [2]) was 4.6.
`N#Cc1ccc2c(c1)S(=O)(=O)c1ccccc1C2=O` was tested, and the Relaxation (Cavia porcellus [1]) was 13% and the pD2 (Cavia porcellus [2]) was 4.53.
Work on `CC(=O)CC(c1ccc([N+](=O)[O-])cc1)c1c(O)c2ccccc2oc1=O` (stereo not drawn) [ACENOCOUMAROL] yielded a Relaxation (Cavia porcellus [1]) of 69% and a pD2 (Cavia porcellus [2]) of 4.55.
With `Cc1nc2c(o1)CC1C=CC=CC1=CC2O` (stereo not drawn) the Relaxation (Cavia porcellus [1]) was 37% and the pD2 (Cavia porcellus [2]) was 4.8.
Work on `Cn1c(=O)c2nc[nH]c2n(C)c1=O.O` [THEOPHYLLINE] yielded a Relaxation (Cavia porcellus [4]) of 77.1%, a pD2 (Cavia porcellus [2]) of 4.69 and an Emax at 1000 µM (Cavia porcellus [5]) of 100%.
Compound `Oc1ccc2c(O)c3ccccc3cc2c1O` [ANTHRAROBIN] has a Relaxation (Cavia porcellus [1]) of 92% and a pD2 (Cavia porcellus [2]) of 5.69.
For `CCn1cc(C(=O)O)c(=O)c2cc(F)c(N3CCNCC3)cc21` [NORFLOXACIN], the Relaxation (Cavia porcellus [1]) was 0%.
`Cc1ccc(S(=O)(=O)N2CCCSCC2)cc1` was tested, and the Relaxation (Cavia porcellus [1]) was 0%.
`Cc1occc(=O)c1O` [MALTOL] was tested, and the Relaxation (Cavia porcellus [1]) was 16% and the pD2 (Cavia porcellus [2]) was 5.25.
In the case of `OC(Cn1cncn1)(Cn1cncn1)c1ccc(F)cc1F` [FLUCONAZOLE], the Relaxation (Cavia porcellus [1]) is reported as -51%.
`Nc1nccs1` [AMINOTHIAZOLE] gave a Relaxation (Cavia porcellus [1]) of 19% and a pD2 (Cavia porcellus [2]) of 4.4.
Compound `O=S1(=O)OC(c2cc(Br)c(O)c(Br)c2)(c2cc(Br)c(O)c(Br)c2)c2ccccc21` [BROMOPHENOL BLUE] has a Relaxation (Cavia porcellus [1]) of 51% and a pD2 (Cavia porcellus [2]) of 4.5.
For `CCn1cc(C(=O)O)c(=O)c2cnc(N3CCCC3)nc21` [PIROMIDIC ACID], the Relaxation (Cavia porcellus [1]) was 25% and the pD2 (Cavia porcellus [2]) was 5.3.
`CN1C(C(=O)Nc2ccccn2)=C(O)c2sccc2S1(=O)=O` [TENOXICAM] was tested, and the Relaxation (Cavia porcellus [1]) was 32% and the pD2 (Cavia porcellus [3]) was 5.2.
`Cc1c(C2(c3cc(Br)c(O)c(Br)c3C)OS(=O)(=O)c3ccccc32)cc(Br)c(O)c1Br` [BROMCRESOL GREEN] gave a Relaxation (Cavia porcellus [1]) of 21% and a pD2 (Cavia porcellus [2]) of 4.5.
In the case of `O=C(O)c1cn(C2CC2)c2cc(N3CCNCC3)c(F)cc2c1=O` [CIPROFLOXACIN], the Relaxation (Cavia porcellus [1]) is reported as 0%.
`NC(=O)c1ccc2c(c1)S(=O)(=O)c1ccccc1C2=O` gave a Relaxation (Cavia porcellus [1]) of 18% and a pD2 (Cavia porcellus [2]) of 5.69.
